Data published in a melting point compilation (Tetko et al.; mined from patent text by program, amines drawn as free bases though some values may be those of a salt).

| Structure (SMILES) | melting point [°C] |
| --- | --- |
| CCOC(=O)Cc1cc(C)c(C(=O)c2ccccc2)n1C | 78 to 80 |
| CN(C)C(=O)c1cc(N(C)C)cc(C(=O)N(C)C)n1 | 175 to 178 |
| Cc1ccc(C(=O)N(C)Cc2cccc(-c3ccc(CC4SC(=O)NC4=O)cc3)c2)cc1 (stereo not given) | 198 |
| COC(=O)NN=C1CCCCCC1 | 75 |
| CC(=O)CCc1ccc2c(c1)C(=O)c1ccccc1-2 | 75 to 77 |
| Cn1ccnc1Sc1ccc(Nc2c(C#N)cnc3cc(Br)ccc23)cc1Cl | 258 to 261 |
| CO/C=C(\C(=O)OC)c1ccccc1C | 68 to 70 |
| CCOC(=O)C1=C(C)NC(C)=C(C(=O)OCC)C1c1cc2cnccc2s1 | 204 to 205 |
| CN1CCC(O)c2cccc(CSc3nc4ccccc4[nH]3)c21 (stereo not given) | 144 to 145 |
| CNC(=O)c1cnn(-c2cccc(Cl)c2)c1Cl | 163 to 165 |
| O=C1c2cc(Cl)c(Cl)cc2C(=O)N1CCCl | 144 to 145 |
| COC(=O)c1ccccc1Nc1cccc(N2N=CN(C)N2)c1 | 106 to 108 |
| CC(C(=O)O)n1ccc2c(OCc3ccccc3)cccc21 (stereo not given) | 143 to 146 |
| N#Cc1ccccc1-c1ccc(OCC(=O)C2CC2)cc1 | 82 to 84 |
| N#Cc1ccc2oc(CCCCc3cc4cc(C#N)ccc4o3)cc2c1 | 187 to 188 |
| Clc1ccccc1C1=NN=C(c2ccccc2Cl)C(c2ccccc2)C1 (stereo not given) | 151 to 153 |
| COC(=O)c1scc(-c2ccccc2OC)c1-n1cccc1 | 148 |
| Cc1cc(C)c2c(c1O)C(N)C(C1CCCCC1)C2 (stereo not given) | 125 to 126 |
| CC1c2cccc3c2N(CC3)c2ccccc2N1C(=O)CN(C)Cc1ccccc1 (stereo not given) | 101 to 106 |
| COC(=O)C(=Cc1cc(OC)cc(OC)c1)c1ccc(Oc2ccc(C=C3SC(=O)NC3=O)cc2)cc1 | 126 to 128 |
| O=[N+]([O-])c1cc(Cl)c(N=C=S)c(Cl)c1 | 74 to 77 |
| CC(=CC#N)c1cc(-c2ccc(S(C)(=O)=O)cc2)c(-c2ccc(F)cc2)s1 | 150 to 154 |
| FC(F)(F)c1cc(-n2cc(/C=C/c3nnn[nH]3)c(-c3cccc(Cl)c3)n2)cc(C(F)(F)F)c1 | 228 to 229 |
| CCC1(CC)CSc2ccccc2N(c2ccccc2)C1=O | 86.4 |
| O=C(Nc1nn(-c2ccccc2)cc1C(=O)O)OCc1cc2cc(-c3ccccc3)ccc2o1 | 221 |

| Structure (SMILES) | melting point [°C] |
| --- | --- |
| CCN1C(=O)C2CC(c3ccc(N)cc3)(C2)C1=O | 159 to 162 |
| CC1=C(c2ccccc2)C(=O)N(C(C)(C)c2ccccc2)CC1 | 108 to 109 |
| N#Cc1[nH]c([N+](=O)[O-])c(Br)c1Br | 181 to 186 |
| CNC(=C[N+](=O)[O-])NCC(O)COc1cccc(CN2CCCCC2)c1 (stereo not given) | 45 to 50 |
| CCCc1nc2c(N)nc3cccnc3c2n1CC1(O)CCCC1 | 184 to 186 |
| CN(C(=O)COc1cc(-c2ccccc2)nc2ccccc12)C(C)(C)C | 90 |
| CC(=O)OC1CC(C)(C)N(OC(=NC2CCCCC2)N(C(C)=O)C2CCCCC2)C(C)(C)C1 | 125 to 130 |
| COc1ccc(-n2nc(C)c(CC(=O)O)c2C)cc1 | 154 to 155 |
| CCOC(=O)N1C=CC(c2ccc(F)cc2)C(C(=O)OC)=C1 (stereo not given) | 83 to 85 |
| CS(=O)(=O)c1cccc(Nc2cc(-c3ccccc3OCc3ccccc3)ncn2)c1 | 199 to 205 |
| CCOC(=O)c1[nH]c2cc(Cl)c(Cl)cc2c1-c1ccccc1 | 201 to 202 |
| N#Cc1c(N2CCN(C(=O)c3cccs3)CC2)c2cccnc2n(C2CCCCC2)c1=O | 192 |
| CC1CC(=O)NN=C1c1ccc(NC(=O)C2CC2(Cl)Cl)cc1 (stereo not given) | 252 to 253 |
| Cc1cc(C)c2nc(CO)n(C)c2n1 | 178 to 179 |
| CCC1c2cccn2-c2cccc(C)c2N1S(=O)(=O)c1ccc(O)cc1 (stereo not given) | 165 to 167 |
| CCCc1c(OCCCCCOc2ccc(OCCCC(=O)O)cc2CCC(=O)O)ccc2c1OCCC2=O | 119 to 124 |
| COc1ccc2c(=O)c(C=O)coc2c1 | 188 to 190 |
| CSc1ccc(-c2nn(CC3CC3)c(=S)cc2-c2ccc(F)cc2)cc1 | 136 |
| Nc1cn(-c2cncc(F)c2)nc1Br | 164 to 165 |
| Nc1nc(N)nc(-c2csc(-c3ccc(C(F)(F)F)cc3)n2)n1 | > 260 |
| N[C@H]1CCCC[C@H]1Nc1cc2c(cc1F)c(=O)c(C(=O)O)cn2C1CC1 (relative stereo) | 270 to 274 |
| O=C(OCCn1ccnc1)C(O)c1ccccc1 (stereo not given) | 131 to 132 |
| Cc1ccc(S(=O)(=O)OCCC2(O)CCc3cc(F)ccc3C2C(C)C)cc1 (stereo not given) | 65 to 67 |
| O=c1oc2cc(O)c(O)c([N+](=O)[O-])c2cc1-c1nnn[nH]1 | > 315 |
| C=C1C(=O)OC2C1CCC(C)=CCCC1(C)OC21 (stereo not given) | 112 to 113 |

| Structure (SMILES) | melting point [°C] |
| --- | --- |
| O=C(O)c1cc2ccc(OCCc3ccccc3)cc2oc1=O | 150 to 151 |
| Cc1cncc(-c2cncc(OC3SCC(O)C(O)C3O)c2)c1 (stereo not given) | 119 to 120 |
| CC1(C)CC(=O)C2=C(C1)NC1=C(C(=O)CC(C)(C)C1)C2c1cccc(-c2ccccc2)c1 | 227 to 229 |
| Cc1ccccc1Cc1ccc(=O)[nH]n1 | 156 to 157 |
| CCNC(=O)c1ccc(N2CCN(Cc3cnc4c(c3)[nH]c(=O)n3cccc43)CC2)c(F)c1 | 263 to 267 |
| NC(=O)c1c(Cl)c(-c2ccccc2)n2c1CN(C(=O)Oc1ccccc1)CC2 | 196 to 198 |
| COc1cc(Cl)c2c(c1)C=C(C(=O)O)C(C(F)(F)F)O2 (stereo not given) | 204 to 207 |
| CCC(=O)C1=C(O)CC(c2c(C)c(C)c3c(c2C)OC(C)(C)C3)CC1=O (stereo not given) | 74 to 76 |
| CN(C)C=CC(=O)c1ccc(OCC(O)CN2CCN(c3ccc(Cl)cc3)CC2)cc1 (stereo not given) | 185 |
| CC(=O)C(C)=Cc1sccc1C | 72 |
| CCCCCCCCc1cc2c(cc1/C(C)=C/c1ccc(C(=O)OC)cc1)C(C)(C)CCCS2(=O)=O | 85 to 86 |
| N#Cc1ccc(NC2CCN(Cc3cc(F)cc(C(F)(F)F)c3)CC2)nn1 | 151 |
| CCCCn1c(=O)c(C(=O)O)c(-c2ccc(Br)cc2)c2cccnc21 | 158 to 160 |
| N=C(N)c1ccc2[nH]cc(CCN3C(=O)c4ccccc4C3=O)c2c1 | 206 to 209 |
| CCCCCCC(C)(C)c1cc(O)cc(O)c1 | 93 to 95 |
| O=C(O)Cc1ccc(OCCNC(=O)C2Cc3ccccc3N2S(=O)(=O)c2ccc(-c3cc(C(F)(F)F)ccc3Cl)cc2)c(Cl)c1 (stereo not given) | 108 to 112 |
| C[C@@H](n1cnc2c(cnn2-c2ccc(Cl)cc2)c1=O)[C@](O)(Cn1cncn1)c1ccc(F)cc1F | 237 to 238 |
| COc1ccc(N2CCN(c3ccc(OC)nc3-c3ccc(C(C)(C)O)cc3)CC2)cc1 | 138 to 144 |
| CCOc1nn(-c2ccc(C(F)(F)F)cn2)cc1CCCOc1cc(CC(=O)O)n(C)n1 | 151 to 152 |
| O=C(O)c1cccc(-c2ccc(Cl)c3cc(Cc4ccc(F)c(F)c4)sc23)c1 | 214 to 215 |
| CC(=O)OC1CSC(Oc2cccnc2-c2ccc(C)o2)C(OC(C)=O)C1OC(C)=O (stereo not given) | 128 |
| COc1cc(OC)c(C2=CCN(C)CC2)c(OC)c1 | 112 to 114 |
| Cc1noc(-c2ccc(C(F)(F)F)cc2)c1C(=O)Nc1ccccc1C(=O)O | 205 to 206 |
| OC1(COc2ccccc2Cc2ccccc2)CN2CCC1CC2 (stereo not given) | 71 to 73 |
| COC(=O)c1ccccc1CS(N)(=O)=O | 79 to 81 |

| Structure (SMILES) | melting point [°C] |
| --- | --- |
| COc1ccc(C[C@@H](CO)NC(=O)c2cccnc2Br)cc1OC | 136 to 138 |
| O=c1[nH]c2cc(Br)sc2[nH]c1=O | > 300 |
| COc1ccc(Cn2nc(C3CCN(CCc4c(C)nc5n(c4=O)CCS5)CC3)c3ccc(F)cc32)cc1 | 146 |
| CC(C)OC(=O)Nc1ccc(Cl)c(-c2ccnc3c(C(=O)c4cccs4)cnn23)c1 | 234 to 236 |
| C(=C\c1ccc2c(c1)COC(N[C@@H]1CCc3ccccc31)=N2)/c1ccccc1 | 162 |
| O=C1NCCc2c(OCc3ccccc3)cccc21 | 171 to 173 |
| COc1ccc(-c2ccc(C(=O)Nc3ccc4cc(CN5CCCCC5)cnc4c3C)cc2F)cc1 | 148 to 149 |
| CCCCN(CCCC)c1ccc(C=Cc2ccc(C(C#N)=C(C#N)C#N)s2)c(OC)c1 | 189 to 192 |
| CC(=O)N[C@@H]1c2cc(C)ccc2OC(C)(C)[C@H]1O (relative stereo) | 188 to 190 |
| CC(C)(C)c1cc(O)cc(C(C)(C)C)c1S(=O)c1nnc(-c2ccccn2)o1 (stereo not given) | 172 to 173 |
| Cc1cc(=O)n2nc(C)n(N)c2n1 | 287 to 289 |
| CC(C)(NCC(F)(F)CN)C(CCn1ccnc1[N+](=O)[O-])=NO | 112 to 114 |
| O=C(Nc1ccc(N2CCN(C(=O)Nc3ccc(OCCO)cc3C(F)(F)F)CC2)cc1)Nc1nc(C2CC2)cs1 | 120 to 123 |
| CCN1C(=O)C(C)(C)C(=O)N(C)c2cc(OCCCN3C(=O)C(c4ccccc4)Cc4ccccc43)ccc21 (stereo not given) | 100 to 105 |
| Cc1ccc2c(c1)Oc1ccc([N+](=O)[O-])cc1C(=O)N2 | 264 to 266 |
| C#CCn1c(=O)sc2cc(F)c(-n3c(=O)cc(C(F)(F)F)[nH]c3=O)cc21 | 224 to 227 |
| C[Si](C)(C)c1ccc(N)cc1 | 123 to 124 |
| Cc1c[nH]c(C)c1C(C)(C)C | 70 to 71 |
| O=C(O)C(=O)Nc1ccc2[nH]c(=O)oc2c1 | 254 |
| CC(C)N1CCOC(COc2cccc3c2CC=C3)C1 (stereo not given) | 107 to 109 |
| COC(=O)C1=C(C)NC(C)=C(C(=O)OC)C1c1cccc(N(C)C(=NC#N)NCCCN2CCC(c3ccccc3)CC2)c1 | 85 to 90 |
| CC(=O)CC(=O)OCCCOC(=O)c1ccc(OCCn2ccnc2)cc1 | 49.5 to 51.5 |
| CCOC(=O)/C(=C\Nc1ccc(OC)cc1)c1ccc(OC)cc1 | 90 to 91 |
| O=C(/C=C/c1cccc(S(=O)(=O)N2CCN(c3cccc([N+](=O)[O-])c3)CC2)c1)NO | 162 |
| O=C(O)c1cc(NCc2ccccc2)c(Nc2ccccc2)c(S(=O)(=O)Nc2ccccc2)c1 | 243 |
